Source: US5086067A, “LTB4 synthesis inhibitors” (G. D. Searle & Co., priority 1989, dated 1992)

Legend:
[1] = molecular target: T1, Human synovial fluid phospholipase A2 (HSF-PLA2) (Homo sapiens, UniProt P14555); assay: Human synovial fluid phospholipase A2 (HSF-PLA2) assay; format: biochemical; conditions: [14C]-oleate-labeled E. coli substrate, pH 7.0, 5 min pre-incubation, 37° C., 30 minutes
T1 construct: Human synovial fluid phospholipase A2 was purified approximately 5000 fold; from tissue; host or cells: human synovial fluid
T1 sequence (P14555 21-144): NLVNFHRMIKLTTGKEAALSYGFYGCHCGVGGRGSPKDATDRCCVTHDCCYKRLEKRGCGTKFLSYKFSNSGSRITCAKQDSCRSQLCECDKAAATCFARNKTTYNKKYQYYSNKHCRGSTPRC
Experimental: Human synovial fluid phospholipase A2 was purified approximately 5000 fold following the procedures of Franson et al., Lung 160, 275-284 (1982) and Fawzy et al., Bio Phys. J. 49, 533a (1986). Following purification the enzyme activity was measured by established methodology using [^14 C]-oleate-labeled, autoclaved E. coli as the substrate as also shown in the above noted references. The assay was performed in a final volume of […] containing 50 mM HEPES (pH 7.0), 150 mM NaCl, 5mM CaCl2, 7 mM [14C]-oleate-labeled E. coli phospholipid and with or without the compound from one of the examples herein undergoing an assay. The compound or control vehicle was pre-incubated with the PLA2 for 5 minutes followed by addition of the E. coli substrate to initiate the reaction. The reaction was maintained at 37° C. for 30 minutes and then terminated by the addition of 2 ml tetrahydrofuran (THF). The reaction product, [14C] -oleic acid, was extracted using a 1 ml Bond Elut NH2 Solid phase extraction column. The IC50 value for the compound (mean +/- S.E.) is given in the following Table and represents the concentration of the compound required to inhibit 50% of the PLA2 activity.

[2] = tested on: LTB4 biosynthesis in HL-60 cells; assay: Assay for LTB4 production by HL-60 cells (LTB4 biosynthesis inhibition); format: cell-based; conditions: Homo sapiens; differentiated HL-60 cells, 10 min pre-incubation at 37° C., 5×10^-6 M A23187 for 5 minutes, radioimmunoassay; read-out: LTB4 Biosynthesis inhibition (HL60 cells) IC50
Experimental: HL-60 cells were induced to differentiate into granulocytes by a 4 day incubation with 0.8% (v/v) N,N-dimethyl formamide as disclosed in Fontana et al., Proc. Natl. Acad. Sci. 78 (6):3863-3866 (1981); Agins et al., Biochem. Biophys. Res. Comm. 126, 143-149 (1985); and Bonser et al., Biochemistry 20: 5297-5301 (1981). Prior to performing the assay, differentiated HL-60 cells were washed once with Hanks. balanced salt solution containing 0.35 mg/ml sodium bicarbonate and 10 mM HEPES pH 7.35 (HBSS). HL-60 cells (3×10^6 cells/ml) were pre-incubated with the compound tested or a control vehicle at 37° C. for 10 minutes, followed by 5 minute incubation with 5×10^-6 M calcium ionophore A23187 in a final volume of 1.0 ml. After incubation, the cells were pelleted by centrifugation and the LTB4 and PGE2 in the supernatant were quantified by radioimmunoassay. IC50 values (means +/- S.E.) for compounds herein that were tested are shown in the following Table and represent the concentrations of the compound required to inhibit 50% of LTB4 or PGE2 production by HL-60 cells stimulated with the calcium ionophore A23187.

Compound: CCCCCCCCCCCCCC#CC(O)c1cccc(-c2nn[nH]n2)c1 (stereo not drawn) [Example 29]
- IC50 [1]: 42 µM

Compound: CCCCCCCCCCCCCC#CC(=O)c1cccc(C(=O)O)n1 [Example 13]
- IC50 [1]: 2.5 µM
- IC50 [2]: 0.8 µM

Compound: CCCCCCCCCCCCCC#CC(=O)c1ccccc1C(=O)O [Example 6]
- IC50 [1]: 13 µM

Compound: CCCCCCCCCCCCCC#CC(=O)c1ccc(C(=O)O)s1 [Example 25]
- IC50 [1]: 15 µM
- IC50 [2]: 0.4 µM

Compound: CCCCCCCCCCCCCC#CC(=O)c1cccc(C(=O)O)c1 [Example 4]
- IC50 [1]: 11 µM
- IC50 [2]: 0.8 µM

Compound: CCCCCCCCCCCCCC#CC(O)c1ccc(C(=O)O)o1 (stereo not drawn) [Example 11]
- IC50 [1]: 28 µM
- IC50 [2]: 2.4 µM

Compound: CCCCCCCCCCCCCC#CC(O)c1ccc(O)c(C(=O)O)c1 (stereo not drawn) [Example 16]
- IC50 [1]: 11 µM
- IC50 [2]: 8 µM

Compound: CCCCCCCCCCCCCC#CC(=O)c1cccc(-c2nn[nH]n2)c1 [Example 30]
- IC50 [1]: 11 µM
- IC50 [2]: 0.9 µM

Compound: CCCCCCCCCCCCCC#CC(=O)c1ccc(O)c(C(=O)O)c1 [Example 17]
- IC50 [1]: 33 µM
- IC50 [2]: 0.4 µM

Compound: CCCCCCCCCCCCCC#CC(=O)c1ccc(C(=O)O)o1 [Example 12]
- IC50 [1]: 34 µM
- IC50 [2]: 0.5 µM

Compound: CCCCCCCCCCCCCC#CC(O)c1ccc(C(=O)O)s1 (stereo not drawn) [Example 24]
- IC50 [1]: 18 µM
- IC50 [2]: 0.9 µM

Compound: CCCCCC#CCCCCCCC#CC(O)c1cccc(C(=O)O)c1 (stereo not drawn) [Example 18]
- IC50 [1]: 28 µM

Compound: CCCCCCCCCCCCC#CC(=O)c1ccc(C(=O)O)cc1 [Example 3]
- IC50 [1]: 14 µM
- IC50 [2]: 0.2 µM

Compound: CCCCCCCCCCCCCC#CC(=O)c1cccc(C(=O)NS(=O)(=O)c2ccccc2)c1 [Example 27]
- IC50 [1]: 14 µM
